In PubChem BioAssay (NCI):
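Following 48 hours of exposure in 96-well plates, responses at five concentrations were used to interpolate endpoints linearly. The concentration for full growth arrest is given as TGI.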 Where a SMILES comes first, the peptide text is derived from it. The star is where a group is joined. Cbz = O=C(OCc1ccccc1)*; Boc = CC(C)(C)OC(=O)*; OBn = c1ccc(CO*)cc1

How the values were obtained:
Assay in all cases: growth of human tumour cells (NCI), 48 h
SF-295 CNS = test system: SF-295 CNS
HT29 colon = test system: HT29 colon
ACHN renal = test system: ACHN renal
SNB-19 CNS = test system: SNB-19 CNS
MOLT-4 leukemia = test system: MOLT-4 leukemia
EKVX NSCLC = test system: EKVX NSCLC
HCT-15 colon = test system: HCT-15 colon
SK-MEL-2 melanoma = test system: SK-MEL-2 melanoma
K-562 leukemia = test system: K-562 leukemia

Row | SMILES | TGI (SF-295 CNS) | TGI (HT29 colon) | TGI (ACHN renal) | TGI (SNB-19 CNS) | TGI (MOLT-4 leukemia) | TGI (EKVX NSCLC) | TGI (HCT-15 colon) | TGI (SK-MEL-2 melanoma) | TGI (K-562 leukemia)
1 | Oc1ccc(SCc2cc(O)c(O)c(O)c2)cc1 | 29.8 µM | 48.1 µM | > 100 µM | > 100 µM | > 100 µM | > 100 µM | > 100 µM | > 100 µM | > 100 µM
2 | O=C1Cc2c([nH]c3ccc(Br)cc23)-c2ccccc2N1 | > 100 µM | > 100 µM | > 100 µM | > 100 µM | > 100 µM | > 100 µM | > 100 µM | > 100 µM | > 100 µM
3 | CSc1c(C#N)c(=O)[nH]c2n[nH]c(C)c12 | – | > 100 µM | – | > 100 µM | > 100 µM | > 100 µM | > 100 µM | > 100 µM | > 100 µM
4 | CC(C)(C)C1(COC(=O)c2ccc(N)cc2)COC1 | > 100 µM | > 100 µM | > 100 µM | > 100 µM | > 100 µM | > 100 µM | > 100 µM | > 100 µM | > 100 µM
5 | CCOC(=O)/C=C(\C(=O)OCC)n1ccc(N)nc1=O | > 100 µM | > 100 µM | > 100 µM | > 100 µM | > 100 µM | > 100 µM | > 100 µM | > 100 µM | > 100 µM
6 | C=CCSC1=N/C(=C\c2ccccc2)C(=O)N1CC=C | > 100 µM | > 66.8 µM | > 100 µM | > 100 µM | 19.1 µM | 77 µM | > 100 µM | 97.6 µM | > 100 µM
7 | O=C1C(Br)=CC2(C=C1Br)CCNC1=C2C(=O)c2cccnc2C1=O | 21 µM | 56.7 µM | 48.9 µM | 20 µM | 24.9 µM | 28.5 µM | 22.6 µM | 10.9 µM | 6.84 µM
8 | O=C1/C(=C/c2ccccc2[N+](=O)[O-])N=C(c2ccccc2)N1C1Nc2cc3c(cc2S1)NC(N1C(=O)/C(=C/c2ccccc2[N+](=O)[O-])N=C1c1ccccc1)S3 (stereo not drawn) | > 100 µM | > 100 µM | > 100 µM | – | > 100 µM | > 100 µM | > 100 µM | > 100 µM | > 100 µM
9 | c1ccc2c(c1)CCc1cc3cc4c(nc3nc1-2)-c1ccccc1CC4 | > 100 µM | – | > 100 µM | > 100 µM | > 100 µM | > 100 µM | > 100 µM | – | > 100 µM
10 | O=[N+]([O-])c1ccc(N=Nc2c(O)c(S(=O)(=O)O)cc3cc(S(=O)(=O)O)ccc23)cc1 | > 100 µM | > 100 µM | > 100 µM | > 100 µM | > 100 µM | > 100 µM | > 100 µM | > 100 µM | > 100 µM
11 | CCOC(=O)CNC(=O)C(C)NC(=O)C(NC(=O)CC(c1ncc[nH]1)c1ncc[nH]1)C(C)CC (stereo not drawn) | > 100 µM | – | > 100 µM | > 100 µM | > 100 µM | > 100 µM | > 100 µM | > 100 µM | > 100 µM
12 | C1CCC(OC2CSC2)OC1 (stereo not drawn) | > 100 µM | > 100 µM | > 100 µM | > 100 µM | > 100 µM | – | > 100 µM | – | > 100 µM
13 | COC(=O)C(Cc1ccc(O)cc1)NC(=O)C(CC(=O)OCc1ccccc1)NC(=O)OCc1ccccc1 (stereo not drawn) (Cbz-Asp(OBn)-Tyr-OMe; configuration not given here) | – | 32.2 µM | 34.8 µM | 34.1 µM | 61.5 µM | 46.7 µM | 33.7 µM | 34.8 µM | > 100 µM
14 | CC(NC(=O)C(NC(=O)OC(C)(C)C)C(C)C)C(=O)N1CCCC1C(=O)NCC(=O)NC(C(=O)NCC(=O)OCc1ccccc1)C(C)C (stereo not drawn) (Boc-VAPGVG-OBn; configuration not given here) | > 100 µM | > 100 µM | > 100 µM | > 100 µM | – | > 100 µM | > 100 µM | > 100 µM | > 100 µM
15 | O=C(CCCCCCCCC(=O)N1C(=O)CC(=O)N(c2cccc(Cl)c2)C1=S)N1C(=O)CC(=O)N(c2cccc(Cl)c2)C1=S | > 100 µM | > 100 µM | > 100 µM | > 100 µM | 70.6 µM | > 100 µM | > 100 µM | > 100 µM | –
16 | CC(CO)C1C[C@H](O)[C@@]2(C)CC(=O)C=C(CO)[C@@H]2C1 (stereo partly drawn) | > 100 µM | > 100 µM | > 100 µM | > 100 µM | > 100 µM | > 100 µM | > 100 µM | > 100 µM | –
17 | C=CCNC(=O)NC1=CSC2=NC(=O)C3(NN12)c1ccccc1-c1ccccc13 | > 10 µM | > 10 µM | > 10 µM | > 10 µM | > 10 µM | > 10 µM | > 10 µM | – | > 10 µM
18 | Cc1ccc(C(C2C(=O)N(C)C(=O)N(C)C2=O)C(F)(F)C(=O)N(C)C)cc1 (stereo not drawn) | > 100 µM | – | > 100 µM | > 100 µM | – | > 100 µM | > 100 µM | > 100 µM | –
19 | COC(=O)/C=C1\CCC(C)(C(=O)NS(=O)(=O)c2ccc(C)cc2)C1(C)C (stereo not drawn) | > 100 µM | – | > 100 µM | > 100 µM | > 100 µM | > 100 µM | > 100 µM | > 100 µM | > 100 µM
20 | COC(=O)c1cc(C#N)[nH]c1-c1ccc(C)s1 | > 100 µM | – | > 100 µM | > 100 µM | > 100 µM | 78.6 µM | > 100 µM | – | > 100 µM
21 | CC(=O)OC(OC(C)=O)n1cc(C=O)c2ccccc21 | > 100 µM | > 100 µM | > 100 µM | > 100 µM | > 100 µM | – | > 100 µM | > 100 µM | > 100 µM
22 | O=S1(=O)c2ccccc2C(=NO)c2ccccc21 | > 100 µM | > 100 µM | > 100 µM | – | > 100 µM | > 100 µM | > 100 µM | > 100 µM | > 100 µM
23 | COc1ccc2c(c1)n([O-])c(C#N)c(N1CCN(c3ccc([N+](=O)[O-])cc3)CC1)[n+]2=O | > 48.1 µM | > 100 µM | > 100 µM | > 100 µM | – | > 100 µM | > 100 µM | > 100 µM | > 100 µM
24 | Cc1cc(-c2nc3ccccc3s2)ccc1NC(=O)[C@H](C)N | 29.3 µM | 28.7 µM | 27.5 µM | 28.7 µM | 37.8 µM | – | 37.1 µM | 34.3 µM | 23.2 µM
